How the values were obtained:
[1] = system: HIV; assay: Inhibition of the cytopathic effect of HIV on MT-4 cells; assay type: cell-based; details: Human immunodeficiency virus 1, MT4, 144 h; MT-4 cells, 6 days of incubation; read-out: 50% antiviral dose (ED50)
Experimental: (§1) Under in vitro conditions immortalized T-lymphocytes can be killed within few days by the cytopathic effect of HIV. […] For this purpose about 20,000 MT-4 cells (Harada et al. Science 229, 563 (1985)) Were infected with HIV (titer: 0.04 m.o.i.) and incubated in the presence or absence of varying concentrations of compounds according to formula I, with 10% fetal calf serum (FCS) in 200 μl RPMI medium. After 6 days of incubation the viable cells were counted that were excluded from trypan blue staining.

[2] = in vitro; details: human, mt-4 cells
Experimental: as §1

[3] = system: K-562 acute myeloic leukemia; assay: Inhibition of proliferation of K-562 cells; assay type: cell-based; details: Homo sapiens, K562; dose required to reduce the cell number by 50%, K-562; read-out: CD50 (the source's name)
Text: (§2) Originally FTdR was developed as a cytostatic agent (P. Langen et al., Acta biol. med. Germ. 23, 759, 1969; and U.S. Pat. No. 3,775,397) and, therefore, its cytostatic efficacy has been examined in extensive prior studies. […] Ehrlich-mouse-ascites-carcinoma cells (EMAC) represents an exception to that finding, and this is probably connected to its high capability of phosphorylation of FTdR, which is 10 times higher than in human cells. The fast reversibility of the cytostatic effects on EMAC cells was regarded as a special property of this compound (P. Langen et al., Europ. J. Cancer. 14. 349, 1978). The antiproliferative effect of FTdR and FddUrd, and in comparison thereto of N3 -TdR were tested on human cell lines with regard to a possible use in humans. […] When FTdR is compared to N3 -TdR. The effects are very similar, however somewhat lower in each case for N3 -TdR than for FTdR.
(§3) CD50 : inhibitory dose required to reduce the cell number by 50%

[4] = system: REH acute lymphatic leukemia; assay: Inhibition of proliferation of REH cells; assay type: cell-based; details: Homo sapiens, dose required to reduce the cell number by 50%, read-out: CD50 (the source's name)
Text: as §2, §3

[5] = system: K-37 immortalized T-cells; assay: Inhibition of proliferation of K-37 cells; assay type: cell-based; details: Homo sapiens, T-cell; dose required to reduce the cell number by 50%, K-37; read-out: CD50 (the source's name)
Text: as §2, §3

[6] = system: H9 immortalized T-cells; assay: Inhibition of proliferation of H9 cells; assay type: cell-based; details: Homo sapiens, T-cell; dose required to reduce the cell number by 50%, H9; read-out: CD50 (the source's name)
Text: as §2, §3

[7] = target: T1, HIV-associated reverse transcriptase (HIV-RT) (Human immunodeficiency virus type 1 group M subtype B, UniProt P04585); assay: Inhibition of HIV-associated reverse transcriptase (polymerization of artificial templates); assay type: biochemical
T1 construct: HIV-associated reverse transcriptase (HIV-RT)
Text: At first the triphosphates of some compounds according to formula I were investigated for their ability to inhibit the polymerization of artificial templates (such as polyAoligodT and polyColigodG) catalyzed by HIV-associated reverse transcriptase (HIV-RT) according to the method described by A. D. Hoffman et al., Virology 147, 326, 1985. […] FdTTP, FdUTP and FdGTP are among the strongest inhibitors found so far for HIV-RT. In comparison the ID50 for 3'-azidothymidinetriphosphate was estimated under our conditions to be about […].

[8] = target: T2, cellular DNA polymerase α (Bos taurus, UniProt A0AAA9TD94); assay: Effect on cellular DNA polymerase α; assay type: biochemical; details: enzyme purified from calf thymus; read-out: ID50 cellular polymerase α
T2 construct: purified from calf thymus; from tissue; host or cells: calf thymus
T2 sequence (A0AAA9TD94 1-1441): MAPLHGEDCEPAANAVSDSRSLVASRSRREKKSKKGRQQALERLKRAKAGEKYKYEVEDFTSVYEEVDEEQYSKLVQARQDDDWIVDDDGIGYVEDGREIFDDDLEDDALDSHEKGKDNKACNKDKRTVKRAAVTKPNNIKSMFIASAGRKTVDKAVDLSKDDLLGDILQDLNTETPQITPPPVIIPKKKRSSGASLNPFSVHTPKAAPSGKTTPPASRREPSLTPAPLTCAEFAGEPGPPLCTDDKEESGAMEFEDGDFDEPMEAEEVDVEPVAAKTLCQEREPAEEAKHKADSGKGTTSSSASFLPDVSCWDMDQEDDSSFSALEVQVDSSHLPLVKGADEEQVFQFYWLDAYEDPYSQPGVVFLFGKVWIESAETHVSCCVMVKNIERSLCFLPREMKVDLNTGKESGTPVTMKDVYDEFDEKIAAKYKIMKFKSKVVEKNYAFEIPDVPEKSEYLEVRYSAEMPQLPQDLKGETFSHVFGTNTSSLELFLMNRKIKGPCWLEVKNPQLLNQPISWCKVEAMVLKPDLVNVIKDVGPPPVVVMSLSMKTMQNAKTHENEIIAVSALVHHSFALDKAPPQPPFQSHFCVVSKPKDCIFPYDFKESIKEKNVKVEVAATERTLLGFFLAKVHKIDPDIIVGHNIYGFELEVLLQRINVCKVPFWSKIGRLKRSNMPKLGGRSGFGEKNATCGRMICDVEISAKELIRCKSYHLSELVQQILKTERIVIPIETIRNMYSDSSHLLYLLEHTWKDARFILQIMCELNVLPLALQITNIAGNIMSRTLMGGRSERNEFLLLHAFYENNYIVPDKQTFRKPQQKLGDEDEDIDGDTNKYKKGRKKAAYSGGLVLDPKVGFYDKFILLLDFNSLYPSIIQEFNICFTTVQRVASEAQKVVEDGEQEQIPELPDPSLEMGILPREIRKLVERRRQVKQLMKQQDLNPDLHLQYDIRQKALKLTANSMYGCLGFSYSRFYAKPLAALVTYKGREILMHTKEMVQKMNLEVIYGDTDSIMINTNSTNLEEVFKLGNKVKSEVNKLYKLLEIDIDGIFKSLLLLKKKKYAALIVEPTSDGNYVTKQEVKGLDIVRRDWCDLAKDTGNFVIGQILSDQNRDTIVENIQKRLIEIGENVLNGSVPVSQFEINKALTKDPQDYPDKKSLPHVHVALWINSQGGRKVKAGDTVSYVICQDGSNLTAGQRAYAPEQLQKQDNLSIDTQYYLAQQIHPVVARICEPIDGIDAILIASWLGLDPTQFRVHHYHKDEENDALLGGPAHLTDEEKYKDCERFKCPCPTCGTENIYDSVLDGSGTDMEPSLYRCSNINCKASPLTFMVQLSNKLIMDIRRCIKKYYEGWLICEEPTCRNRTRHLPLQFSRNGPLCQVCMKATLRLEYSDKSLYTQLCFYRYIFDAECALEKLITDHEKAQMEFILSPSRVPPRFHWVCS
Text: (§4) The strong inhibiting effect of 3'-fluoro-substituted deoxynucleotides against HIV-reverse transcriptase can be utilized therapeutically only if the cellular DNA polymerases, especially the DNA polymerase α which is required for the replication of the cellular DNA, remain substantially unaffected. […] The ID50 values for the DNA polymerase β responsible for cellular DNA repair vary between 1,8-15 μm. Both enzymes cellular DNA polymerase α and β were purified from calf thymus and tested according to the method of E. Matthes et al., Biomed. Biochim. Acta 44. K63 (1985).

[9] = target: T3, cellular DNA polymerase β (Bos taurus, UniProt Q27958); assay: Effect on cellular DNA polymerase β; assay type: biochemical; details: enzyme purified from calf thymus; read-out: ID50 cellular polymerase β
T3 construct: purified from calf thymus; from tissue; host or cells: calf thymus
Text: as §4

[10] = target: RLV-associated reverse transcriptase; assay: Inhibition of RLV-associated reverse transcriptase; assay type: biochemical, Rauscher murine leukemia virus

O=c1ccn([C@H]2C[C@H](F)[C@@H](CO)O2)c(=O)[nH]1 [FddUrd, 2'-3'-dideoxy-3'-fluorouridine]
EC50 [1]: 275 nM
CC50 at 144 h [2]: 75 µM
IC50 [3]: > 1 mM
IC50 [4]: > 9 mM
IC50 [5]: > 1 mM
IC50 [6]: > 2.5 mM

Cc1cn([C@H]2C[C@H](F)[C@@H](COP(=O)(O)OP(=O)(O)OP(=O)(O)O)O2)c(=O)[nH]c1=O [FdTTP, 2'-3'-dideoxy-3'-fluorothymidine-5'-triphosphate]
mode of action (type of inhibition) [7]: competitive type of inhibition
IC50 ([7]; read-out: ID50 HIV-associated reverse transcriptase): 50 nM
IC50 [8]: > 200 µM
IC50 [9]: 2200 nM
ID50 RLV-associated reverse transcriptase [10]: 0.5 µM
RLV-associated RT less sensitive to the inhibitor than HIV-associated RT ([10]; ratio of ID50 values): 10 times

Reference: patent US5153180A, “Fluorinated nucleosides and process for treating retrovirus infections therewith” (priority 1990, dated 1992)
